Values joined by “and” are separate entries in the source; they are usually repeats but may differ in a detail not shown here. Equal values may be shown once. Peptide text beside a SMILES is read from it.
Key:
[1] = not given; remark: listed apart in the source
[2] = Solid-state NMR population profiling (dipolar CP and scalar INEPT spectra) of fibril and non-fibril assemblies; assay type: physicochemical; details: 4 mM, pH 7.4 in PBS, 3 days, 500 MHz, 10 kHz MAS, 280 K; for normalization scaling factor of the dipolar ssNMR spectrum relative to SLP1 (higher factor = lower fibrillization yield): dipolar CP spectra report on rigid 1D nanofibers
Protocol: As a next step, we hypothesized that higher-resolution methods might disclose further differences in the properties of the SLP assemblies. To examine our hypothesis, we profiled the SLP1–4 assemblies using ssNMR spectroscopy. Using the same conditions (4 mM, pH 7.4 in PBS for 3 days), we acquired the so-called dipolar cross-polarization (CP) ssNMR spectra and so-called scalar INEPT ssNMR spectra on isotopically (^13C, ^15N) labeled SLP assemblies (see “Methods”), which enables to quantify rigid and mobile populations of peptide assemblies in the systems[36] (Fig. 3b). While dipolar signals report on immobilized peptides in 1D assemblies, scalar spectra report on peptides with fast pico-to-nanosecond dynamics, which can either be monomeric peptides or micellar oligomers[16],[32]. We specifically labeled residues in the hydrophobic tail (Val1–2 and Leu6–7) that are responsible for the self-assembly. […] The intensity of the dipolar spectra correlates with the amount of rigid cross-β structure present in the system. We observe that the intensities of dipolar signal of SLP1 is larger than SLP2 (normalization scaling factor of 10, Fig. 3b) and SLP3 (normalization scaling factor of 25, Fig. 3b), which indicate the relative fibrillization yield of SLP1 > SLP2 > SLP3. […]
1D CP[48] and scalar[49] ssNMR experiments to probe rigid and mobile populations, respectively, were acquired at 11.7 T magnetic field (500 MHz (^1H frequency) with 10 kHz magic angle spinning (MAS) and 280 K sample temperature. 2D ^13C–^13C and 2D CαN for peptide assignments were also performed at similar conditions. 2D Ca(N)H experiments for ^15NT1rho relaxation studies were performed at 950 MHz magnetic field strength with 60 kHz. ^13C was detected in the indirect dimension because of spectral overlap in the ^15N dimension. The 2D ^13C–^13C PARIS[37] experiment with the CPMAS CryoProbe[39] to measure intermolecular peptide contacts was performed at 600 MHz and 12 kHz MAS using 700 ms magnetization transfer and a ^1H recoupling amplitude of 6 kHz.

[3] = not given; remark: listed apart in the source
[4] = larger oligomers or early nucleated structures; 1 µM Cy5-SLP in 4 mM unlabeled SLP, PBS pH 7.4; early assembly phase, measured after 5 min of preparatory work
Protocol: To validate this hypothesis, we performed fluorescence correlation spectroscopy (FCS) measurements to study the diffusion properties of SLPs in the early phase of self-assembly. […] To explore these size differences in more detail, we fitted the FCS data with a higher-order fitting model. Maximum entropy method (MEM) was chosen to account for the polydispersity of the oligomers. Each condensed fraction was treated as one quasi-continuous distribution, so as to provide the widest data-complying size distribution (least chance of overinterpretation)[34].
The measurement concentration was 4 mM of SLPs in PBS (pH 7.4) of which 1 out of 4000 peptides was labeled with Cy5. The FCS autocorrelation curves were fitted with the maximum entropy method (MEM) for higher-resolution analysis on size distribution, indicated by the solid lines. c The size distribution of SLPs obtained from MEM analysis of the FCS measurements. The dashed line at D = 150 µm^2/s indicates the cut-off size between monomeric (D > 150) and oligomer (D < 150) populations.
Fluorescence time traces were obtained by focusing a 640-nm laser line through a water immersion objective lens (×60 Plan Apo VC, N.A. 1.2, Nikon, Japan) at ~50 µm above the bottom of the glass-bottom 96-well plate (Grainer Bio-one, Frickenhausen, Germany). […] After 5 min of preparatory work, 50 µl of sample was measured with confocal microscope (Nikon C1). […]

[5] = not given; remark: listed apart in the source
[6] = Negative-staining TEM and AFM of the mesoscale structure of SLP assemblies; assay type: physicochemical; details: 4 mM, pH 7.4 in PBS
Protocol: Next, we investigated the downstream effect of the differences in size of oligomeric particles and β-sheet propensities on the supramolecular self-assembly. One of the pivotal events in defining supramolecular self-assembly is whether nucleation has taken place or not. This can be identified by the mesoscale structures of the assemblies after certain time of incubation, e.g., the formation of one-dimensional (1D) nanostructures is indicative that nucleation has taken place. We used negative-staining transmission electron microscopy (TEM) and atomic force microscopy (AFM) to compare SLPs that were assembled under the same preparation protocol (4 mM, pH 7.4 in phosphate-buffered saline (PBS) for 3 days). We could indeed detect markedly different mesoscale structures in these SLP systems (Figs. 3a and S1). […] Based on these mesoscale evidences, we can deduce that nucleation occurred in SLP1–3, however, not in SLP4.
Peptide assemblies were prepared by dissolving peptide powders in nine volumes of 10 mM sodium hydroxide in 1.5 ml Eppendorf tube. One volume of PBS (10×) was added to make sample of pH 7.4 ± 0.2 and a final concentration of 4 mM. Solution was vortexed for 5 s and incubated statically for 3 days at room temperature before proceeding for measurements.
Samples prepared at 4 mM were diluted tenfold with 1× PBS. Formvar/carbon-coated 400 mesh copper grid (Polysciences Inc.) was placed on top of a droplet of 20 μl of diluted samples. After 2-min incubation, the grid was washed three times with […] filtered mili-Q water and blotted dry with filter paper. Negative staining was performed for 1 min with 2% w/v uranyl acetate in water. Staining solution was blotted off with filter paper. […]
AFM micrographs were recorded using a Bruker MultiMode 8 (ScanAsyst Air silicon nitride probes, spring constant 0.4 N/m, nominal tip radius 2 nm) and post-processed by a plane subtraction and line alignment. Three different spots (one in main text, two in Fig. S3) were measured on the sample to confirm uniformity and get a comprehensive view of the sample’s features.

SMILES | nanofiber length [nm] | nanofiber diameter [1] [nm] | normalization scaling factor of the dipolar ssNMR spectrum relative to SLP1 (higher factor = lower fibrillization yield) [2] | XRD cross-β reflection [3] [Å] | diffusion coefficient of the SLP population (MEM analysis of FCS) [4] | oligomer diffusion coefficient, fold smaller than SLP3–4 [5] | mesoscale structure of the assemblies (TEM, AFM) ([6]; 3 days static at room temperature) | diameter of the assembled nanostructures ([6]; TEM/AFM, 3 days) | nucleation event deduced from mesoscale structure ([6]; TEM/AFM, 3 days) | dipolar ssNMR signals (immobile assemblies) [2]
CC[C@H](C)[C@H](NC(=O)[C@@H](NC(=O)[C@@H](NC(=O)[C@@H](NC(=O)[C@@H](NC(C)=O)C(C)C)C(C)C)C(C)C)[C@@H](C)O)C(=O)N[C@@H](CC(C)C)C(=O)N[C@@H](CC(C)C)C(=O)N[C@@H](CCC(=O)O)C(=O)N[C@@H](CCC(=O)O)C(=O)N[C@@H](CCC(=O)O)C(=O)O [SLP3] (Ac-VVVTILLEEE-OH) | > 1000 | 10 | 25 | 4.7 |  |  |  |  |  | 
CC(=O)N[C@H](C(=O)N[C@H](C(=O)N[C@H](C(=O)N[C@H](C(=O)N[C@@H](CC(C)C)C(=O)N[C@@H](CC(C)C)C(=O)N[C@@H](CC(C)C)C(=O)N[C@@H](CCC(=O)O)C(=O)N[C@@H](CCC(=O)O)C(=O)O)[C@@H](C)O)C(C)C)C(C)C)C(C)C [SLP2] (Ac-VVVTLLLEE-OH) | > 1000 |  | 10 | 4.7 |  |  |  |  |  | 
CC[C@H](C)[C@H](NC(=O)[C@@H](NC(=O)[C@@H](NC(=O)[C@@H](NC(=O)[C@@H](NC(C)=O)C(C)C)C(C)C)C(C)C)[C@@H](C)O)C(=O)N[C@@H](CC(C)C)C(=O)N[C@@H](CC(C)C)C(=O)N[C@@H](CCC(=O)O)C(=O)N[C@@H](CCC(=O)O)C(=O)O [SLP1] (Ac-VVVTILLEE-OH) | > 1000 | 10 |  | 4.7 | 0.1–1 µm^2/s | 10 times and 10 fold |  |  |  | 
CC(=O)N[C@H](C(=O)N[C@H](C(=O)N[C@H](C(=O)N[C@H](C(=O)N[C@@H](CC(C)C)C(=O)N[C@@H](CC(C)C)C(=O)N[C@@H](CC(C)C)C(=O)N[C@@H](CCC(=O)O)C(=O)N[C@@H](CCC(=O)O)C(=O)N[C@@H](CCC(=O)O)C(=O)O)[C@@H](C)O)C(C)C)C(C)C)C(C)C [SLP4] (Ac-VVVTLLLEEE-OH) |  |  |  |  |  |  | polydisperse zero-dimensional nanostructures | 10–60 nm | no nucleation event has taken place | absent
